Read-outs that look alike come from different tables or passages of the source.
Experiments:
[1] = tested on: experimental rabbit ear acne; assay: Pharmacodynamics evaluation of acne: coal tar rabbit ear acne model, HE pathology; type: in vivo, Japanese big-ear white rabbits; settings: 0.01% ointment, 1 g per animal, once a day, two weeks, 10 rabbits per group; for Degree of keratinization: number of rabbits graded + / Degree of keratinization: number of rabbits graded ++ / Degree of keratinization: number of rabbits graded +++ / Degree of keratinization: number of rabbits graded −: hair follicle keratinization
Text: There are 140 male healthy Japanese big-ear white rabbits, weighing 2.0-2.5 kg. After one week of adaptive rearing, 10 rabbits were randomly selected according to their body weights as the normal control group, and the remaining 130 rabbits were coated with coal tar once a day in the area of 2×2 cm2 at 2 cm outside the opening of ear canal, with a thickness of about 0.5 mm (Before coating, the coal tar was heated to melt in a water bath, and the last coal tar shell was removed before each application; the rabbits in normal control group were coated with olive oil by the same method as before). After 3 weeks for modeling, according to the degree of skin lesion, 130 rabbits were randomly divided into 13 groups which is model control group, Example 1 compound (1 group), Example 2 compound (2 groups), Example 3 compound (3 groups), Example 4 (4 groups), Example 5 (5 groups), Example 6 (6 groups), Example 7 (7 groups), Example 8 (8 groups), Example 9 (9 groups), Example 10 (10 groups), Example 11 (11 groups), Example 12 (12 groups), Example 13 (13 groups), and each group had 10 rabbits. After grouping, each dose group were continued to be coated coal tar in the morning, and after the coal tar was removed in the afternoon, apply the test drug or control drug (both 0.01%/10 g ointment, apply 1 g ointment per animal) on the lesion, once a day, for two consecutive weeks (the model control group and the normal control group were coated with the same amount of matrix). 24 hours after the last administration, the animals were sacrificed by air embolism, and the skin (full thickness) of the ear where the administration was administered was taken, fixed with 4% paraformaldehyde solution, stained with HE, and routinely observed for pathology.1.

[2] = tested on: human prostate cancer cell VCaP nude mouse transplanted tumor model; assay: Prostate tumor pharmacodynamics experiment: VCaP nude mouse transplanted tumor model; type: in vivo, BALB/c nude mice; settings: for inhibition in vivo at 500 µmol/kg: Mus musculus, VCaP, po, 600 h, read-out: Growth Inhibition rate (GI); for Tumor volume, day 25: n=6, * P<0.05, ** P<0.01 vs solvent control
Method: Male BALB/c nude mice (number: 90; age: 6-7 weeks) purchased from Beijing Vital River Laboratory Animal Technology Co., Ltd., were raised in the SPF animal room of Suzhou Shengsu New Drug Development Co., Ltd. at a temperature of 20˜25° C. and a relative humidity 40%˜70%, and bright and dark illumination for 12 hours respectively; these mice were allowed to drink and eat freely. After normal feeding for about 6 days, mice with good physical signs can be selected for this experiment after veterinary inspection. Before grouping, animals were identified at their base of tail using marking pens. After grouping, each animal was identified by ear clipping.
Human prostate cancer cells VCaP were obtained from the Shanghai Cell Bank of the Chinese Academy of Sciences (CAS, cryopreserved in liquid nitrogen in our laboratory).
Under a culture condition of 5% CO2 and 37° C., VCaP cells were routinely cultured in DMEM medium containing 10% fetal bovine serum. Digested with 0.25% trypsin and passaged, VCaP cells were passaged 2-3 times per week based on cell growth, with a passage ratio of 1:3 to 1:5.
The VCaP cells in logarithmic growth phase were collected, counted, and resuspended in 50% DMEM basal medium and 50% Matrigel Matrix, and the cell concentration was adjust to 5×10^7 cells/mL; the cells was placed in an ice box; Cell suspension was aspirated with a 1 ml syringe, and injected subcutaneously to the anterior right armpit of nude mice. Each animal was inoculated with 200 μL (1×10^7 cells/mouse), and a VCaP transplant tumor model in nude mice was established. Regularly observe the status of mice, measure the diameter of the tumor with an electronic vernier caliper, input the data into Excel spreadsheets, calculate the tumor volume, and monitor its growth. When the tumor volume reached 100-300 mm3, 60 mice with good health and similar tumor volume were selected, and divided into 10 groups (n=6) based on the tumor volume using random block method, while ensuring that the average body weight of each group remained consistent as much as possible. The day of grouping was taken as the first day of the experiment (D1). The tumor diameters were measured twice a week after the initiation of the experiment, the tumor volumes were calculated, and the body weights of the animals were weighed and recorded at the same time.
Preparation of DMSO&PEG400&PG (v:v:v, 10:60:30): appropriate volumes of DMSO, PEG400 and PG were drawed respectively, and mixed well. The ratio of DMSO, PEG400 and PG in the mixture is 10:60:30 (v:v:v), and this mixture is used as a blank solvent and stored at room temperature.
Appropriate amount of the test compound was weighed and added into a glass bottle, appropriate volume of solvent DMSO was added, be treated with vortex ultrasonication, then appropriate volumes of PEG400 and PG were added in turn, be vortex mixed to obtain a dosing formulation with a final concentration of 0.05M. The dosing formulation was stored in refrigerator at 2-8° C. after subpackaging, and was stirred evenly with vortex before each administration. The dosing formulation was prepared every 7 days, and was subpackaged and stored in refrigerator at 4° C.
Appropriate amount of ZONK1901-10 was weighed and added into a glass bottle, appropriate volume of corn oil, was added, be treated with vortex ultrasonication evenly, a dosing formulation with a final concentration of 19.58 mg·mL-1 (0.05 M) was obtained.

[3] = day 25, 0.5 mmol·kg−1 i.g. QD, vs solvent control

Structure (SMILES) | degree of inflammatory cell infiltration: number of rabbits graded + [1] | degree of inflammatory cell infiltration: number of rabbits graded ++ [1] | degree of inflammatory cell infiltration: number of rabbits graded +++ [1] | degree of inflammatory cell infiltration: number of rabbits graded − [1] | Degree of keratinization: number of rabbits graded + [1] | Degree of keratinization: number of rabbits graded ++ [1] | Degree of keratinization: number of rabbits graded +++ [1] | Degree of keratinization: number of rabbits graded − [1] | inhibition in vivo at 500 µmol/kg [2] [%] | Tumor volume, day 25 ([2]; day 25, 0.5 mmol·kg−1 i.g. QD) | inhibition in vivo at 500 µmol/kg [2, 3] [%]
C[C@]12CCC(=NOC(=O)N(CCCl)CCCl)C=C1CC[C@H]1[C@@H]2CC[C@]2(C)C(c3cccnc3)=CC[C@@H]12 [Example 3, (8S,9S,10R,13S,14S)-10,13-Dimethyl-17-(pyridin-3-yl) -6,7,8,9,10,11,12,13,14,15-decahydro-1H-cyclopenta[a]phenanthrenyl-3(2H)-one O-(bis(2-chloroethyl)carbamoyl)oxime] | 5 | 4 | 1 | 0 | 6 | 4 | 0 | 0 | 71.2 | 478 ± 64 ** mm3 | –
C[C@]12CCC(=NOC(=O)N3CCC(N4CCCCC4)CC3)C=C1CC[C@H]1[C@@H]2CC[C@]2(C)C(c3cccnc3)=CC[C@@H]12 [Example 4, (8S,9S,10R,13S,14S)-10,13-Dimethyl-17-(pyridin-3-yl) -6,7,8,9,10,11,12,13,14,15-decahydro-1H-cyclopentene[a]phenanthrenyl-3(2H)-one O-([1,4′-bipiperidine]-1′-carbonyl)oxime] | 5 | 3 | 2 | 0 | 7 | 3 | 0 | 1 | – | 377 ± 37 ** mm3 | 84.2
Cc1ccccc1C(=O)ON=C1C=C2CC[C@H]3[C@H](CC[C@]4(C)C(c5cccnc5)=CC[C@@H]34)[C@@]2(C)CC1 [Example 5, (8S,9S,10R,13S,14S)-10,13-Dimethyl-17-(pyridin-3-yl) -6,7,8,9,10,11,12,13,14,15-decahydro-1H-cyclopenta[a]phenanthrenyl-3(2H)-one O-(2-methylbenzoyl)oxime] | 6 | 3 | 1 | 0 | 6 | 4 | 0 | 0 | – | 410 ± 44 ** mm3 | 85.2

Source: US20240208905A1, “ABIRATERONE DERIVATIVE, PREPARATION AND APPLICATION THEREOF” (GUANGDONG ZHONGKE MEDICINE R&D LTD., priority 2021, published 2024)
